Results reported in the Kinase Knowledgebase extract (Sharma et al. 2016).

These molecules were tested against MAPK14 (human) (UniProt Q16539) (assay: Inhibition of MAPK14 Kinase Activity).
Sequence of MAPK14 (human) (Q16539 whole entry, looked up): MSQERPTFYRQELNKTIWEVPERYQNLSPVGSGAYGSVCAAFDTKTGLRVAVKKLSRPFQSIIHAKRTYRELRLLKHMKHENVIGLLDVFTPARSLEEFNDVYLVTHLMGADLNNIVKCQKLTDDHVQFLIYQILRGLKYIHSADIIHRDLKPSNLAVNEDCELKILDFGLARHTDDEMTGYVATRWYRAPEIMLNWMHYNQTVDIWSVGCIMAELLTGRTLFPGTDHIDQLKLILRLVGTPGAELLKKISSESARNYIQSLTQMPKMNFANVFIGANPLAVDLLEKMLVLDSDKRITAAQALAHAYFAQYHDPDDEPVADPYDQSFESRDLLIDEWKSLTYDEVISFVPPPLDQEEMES

| IC50 | Structure (SMILES) |
| --- | --- |
| 109 nM | Fc1ccccc1-c1nc(-c2cnc(NC3CCOCC3)s2)cn2ccnc12 |
| 3 nM | CC[C@@H](C)Nc1ncc(-c2cc(-c3cscc3C)c3nccn3c2)s1 |
| 5.2 nM | Cc1cscc1-c1cc(-c2cnc(NC(C)C)s2)cn2ccnc12 |
| 807 nM | CCC(CC)Nc1ncc(-c2cc(-c3cccc(C#N)c3)c3nccn3c2)s1 |
| 35.8 nM | Fc1ccc(-c2cc(-c3cnc(NC4CCOCC4)s3)cn3ccnc23)cc1 |
| 5.9 nM | CC[C@@H](C)Nc1ncc(-c2cc(-c3ccccc3Cl)c3nccn3c2)s1 |
| 91 nM | CC(C)Nc1ncc(-c2cc(-c3cccc(F)c3)c3nncn3c2)s1 |
| 924 nM | COC(=O)Cc1cn2cc(-c3cn[nH]c3)cc(-c3ccccc3)c2n1 |
| 60 nM | CC(C)Nc1ncc(-c2cn3ccnc3c(-c3ccccc3)n2)s1 |
| 1540 nM | Cc1ccc(C)c(-c2cc(-c3cnc(NC(C)C)s3)cn3ccnc23)c1 |
| 23 nM | CC[C@@H](C)Nc1ncc(-c2cn3ccnc3c(-c3ccccc3F)n2)s1 |
| 38 nM | CC(C)Nc1cnc(-c2cc(-c3ccccc3)c3nc(CCO)cn3c2)s1 |
| 13 nM | CC(C)Nc1ncc(-c2cc(-c3ccccc3F)c3nncn3c2)s1 |
| 809 nM | CC[C@@H](C)Nc1ncc(-c2cn3ccnc3c(-c3ccccc3O)n2)s1 |
| 795 nM | CCOC(=O)c1ccccc1-c1cc(-c2cnc(NC(C)C)s2)cn2ccnc12 |
| 40 nM | CCCCNc1ncc(-c2cc(-c3ccccc3)c3nc(C(=O)OCC)cn3c2)s1 |

| IC50 | Structure (SMILES) |
| --- | --- |
| 5.7 nM | CC[C@@H](C)Nc1ncc(-c2cc(-c3ccc(F)cc3F)c3nccn3c2)s1 |
| 41.6 nM | CC(C)C(C)Nc1ncc(-c2cc(-c3ccccc3)c3nccn3c2)s1 (configuration not stated) |
| 1780 nM | Cc1ccccc1-c1cc(-c2cnc(NCCN(C)C)s2)cn2ccnc12 |
| 39 nM | CC(C)C(C)Nc1ncc(-c2cc(-c3ccccc3Cl)c3nccn3c2)s1 (configuration not stated) |
| 40 nM | CCOCC(C)Nc1ncc(-c2cn3ccnc3c(-c3ccccc3F)n2)s1 (configuration not stated) |
| 15 nM | CC(C)Nc1ncc(-c2cc(-c3ccccc3Cl)c3nncn3c2)s1 |
| 6 nM | CCOC(=O)c1cn2cc(-c3cnc(N[C@H](C)CC)s3)cc(-c3ccccc3F)c2n1 |
| 5 nM | CC[C@@H](C)Nc1ncc(-c2cc(-c3ccccc3C)c3nccn3c2)s1 |
| 37 nM | CNC(=O)c1cn2cc(-c3cnc(NC(C)C)s3)cc(-c3ccccc3)c2n1 |
| 926 nM | CC(C)Nc1ncc(-c2cc(-c3cccc(C#N)c3)c3nccn3c2)s1 |
| 669 nM | CC(C)Nc1ncc(-c2cc(-c3ccccc3C#N)c3nccn3c2)s1 |
| 3.4 nM | CC[C@@H](C)Nc1ncc(-c2cc(-c3ccccc3F)c3nccn3c2)s1 |
| 604 nM | CC(C)Nc1ncc(-c2cc(-c3ccc(F)c(Cl)c3)c3nncn3c2)s1 |
| 630 nM | Cc1c(-c2cc(-c3ccccc3)c3nccn3c2)cnn1-c1ccccc1 |
| 581 nM | CC(C)Nc1ncc(-c2cc(-c3ccccc3)c3nncn3c2)s1 |
| 33 nM | CC[C@@H](C)Nc1ncc(-c2cc(-c3ccccc3)c3nc(CC(=O)OC)cn3c2)s1 |
